Measured values from ChEMBL document CHEMBL2177063, “Iridoid glucosides from Nyctanthes arbortristis result in increased reactive oxygen species and cellular redox homeostasis imbalance in Leishmania parasite” (Eur J Med Chem, 2012).
Calls of active or inactive are those of the source. The rule behind the calls is not given here.

Columns and labels:
[1] = biological target: Trypanothione reductase (Leishmania donovani) (UniProt P39050); assay: Inhibition of Leishmania donovani DD8 promastigote form trypanothione reductase assessed as decrease in reduced thiol level at 3.125 uM after 12 hrs by DTNB-based spectrophotometric analysis relative to control
[2] = biological target: Trypanothione reductase (Leishmania donovani) (UniProt P39050); assay: Inhibition of Leishmania donovani DD8 axenic form trypanothione reductase assessed as decrease in reduced thiol level at 100 uM after 48 hrs by DTNB-based spectrophotometric analysis relative to control
Leishmania donovani [3] = assay: Induction of oxidative stress in axenic form of Leishmania donovani DD8 assessed as change in cell surface topology at 20 uM by CM-H2DCFDA-based flow cytometric analysis; type: functional, organism-based
Leishmania donovani [4] = assay: Antileishmanial activity against promastigote form of Leishmania donovani DD8 after 48 hrs by MTT assay; type: functional, organism-based; details: DD8, 48 h
Leishmania donovani [5] = assay: Induction of oxidative stress in amastigote form of Leishmania donovani DD8 assessed as increase in ROS level at 5 to 20 uM up to 48 hrs by CM-H2DCFDA-based fluorimetric analysis; type: functional, organism-based
Leishmania donovani [6] = assay: Induction of oxidative stress in promastigote form of Leishmania donovani DD8 assessed as change in cell surface topology at 20 uM by CM-H2DCFDA-based flow cytometric analysis; type: functional, organism-based
[7] = biological target: Trypanothione reductase (Leishmania donovani) (UniProt P39050); assay: Inhibition of Leishmania donovani DD8 promastigote form trypanothione reductase assessed as decrease in reduced thiol level at 100 uM after 12 hrs by DTNB-based spectrophotometric analysis relative to control
Leishmania donovani [8] = assay: Induction of apoptosis in promastigote form of Leishmania donovani DD8 assessed as viable cells at 20 uM after 24 hrs by FITC-annexinV/PI-based flow cytometric analysis (reference value: 92.68%); type: functional
Leishmania donovani [9] = assay: Antileishmanial activity against promastigote form of Leishmania donovani DD8 assessed as cell death at 200 uM from 12 to 48 hrs by ethidium bormide/acridine orange staining-based fluorescence microscopic analysis; type: functional, organism-based
[10] = Cytotoxicity against human HEK293 cells assessed as cell viability at 4 uM after 48 hrs by MTT assay relative to control; type: cell-based; details: read-out: Activity
Leishmania donovani [11] = assay: Induction of oxidative stress in axenic form of Leishmania donovani DD8 assessed as increase in ROS level at 20 uM by CM-H2DCFDA-based flow cytometric analysis; type: functional, organism-based
[12] = biological target: Trypanothione reductase (Leishmania donovani) (UniProt P39050); assay: Inhibition of Leishmania donovani DD8 promastigote form trypanothione reductase assessed as decrease in reduced thiol level at 100 uM after 48 hrs by DTNB-based spectrophotometric analysis relative to control
Leishmania donovani [13] = assay: Induction of apoptosis in promastigote form of Leishmania donovani DD8 assessed as early apoptotic cells at 20 uM after 24 hrs by FITC-annexinV/PI-based flow cytometric analysis (reference value: 2.61%); type: functional
Leishmania donovani [14] = assay: Induction of oxidative stress in promastigote form of Leishmania donovani DD8 assessed as increase in ROS level at 20 uM by CM-H2DCFDA-based flow cytometric analysis; type: functional, organism-based
Leishmania donovani [15] = assay: Induction of oxidative stress in promastigote form of Leishmania donovani DD8 assessed as increase in ROS level at 5 to 20 uM up to 48 hrs by CM-H2DCFDA-based fluorimetric analysis; type: functional, organism-based
[16] = biological target: Trypanothione reductase (Leishmania donovani) (UniProt P39050); assay: Inhibition of Leishmania donovani DD8 axenic form trypanothione reductase assessed as decrease in reduced thiol level at 100 uM after 12 hrs by DTNB-based spectrophotometric analysis relative to control
Leishmania donovani [17] = assay: Antileishmanial activity against amastigote form of Leishmania donovani DD8 infected in mouse J774A1 cells at 100 uM after 48 hrs by ethidium bromide/acridine orange staining-based fluorescence microscopic analysis; type: functional, organism-based; details: J774.A1
Leishmania donovani [18] = assay: Antileishmanial activity against amastigote form of Leishmania donovani DD8 infected in mouse J774A1 cells at 10 uM after 48 hrs by ethidium bromide/acridine orange staining-based fluorescence microscopic analysis; type: functional, organism-based; details: J774.A1
[19] = biological target: Trypanothione reductase (Leishmania donovani) (UniProt P39050); assay: Inhibition of Leishmania donovani DD8 promastigote form trypanothione reductase assessed as decrease in reduced thiol level at 3.125 uM after 48 hrs by DTNB-based spectrophotometric analysis relative to control
[20] = biological target: Trypanothione reductase (Leishmania donovani) (UniProt P39050); assay: Inhibition of Leishmania donovani DD8 axenic form trypanothione reductase assessed as decrease in reduced thiol level at 3.125 uM after 12 hrs by DTNB-based spectrophotometric analysis relative to control
Leishmania donovani [21] = assay: Induction of necrosis in promastigote form of Leishmania donovani DD8 assessed as necrotic cells at 20 uM after 24 hrs by FITC-annexinV/PI-based flow cytometric analysis (reference value: 1.31%); type: functional
J774.A1 = assay: Cytotoxicity against mouse J774A1 cells at 1 to 100 uM after 48 hrs by MTT assay; type: cell-based; details: j774.a1, 48 h
Leishmania donovani [22] = assay: Induction of apoptosis in promastigote form of Leishmania donovani DD8 assessed as late apoptotic cells at 20 uM after 24 hrs by FITC-annexinV/PI-based flow cytometric analysis (reference value: 3.4%); type: functional
[23] = Cytotoxicity against human HEK293 cells assessed as cell viability at 100 uM after 48 hrs by MTT assay relative to control; type: cell-based; details: read-out: Activity
Leishmania donovani [24] = assay: Antileishmanial activity against axenic form of Leishmania donovani DD8 after 48 hrs by MTT assay; type: functional, organism-based; details: DD8, 48 h
[25] = biological target: Trypanothione reductase (Leishmania donovani) (UniProt P39050); assay: Inhibition of Leishmania donovani DD8 axenic form trypanothione reductase assessed as decrease in reduced thiol level at 3.125 uM after 48 hrs by DTNB-based spectrophotometric analysis relative to control

Chain of Trypanothione reductase (Leishmania donovani) (P39050 whole entry): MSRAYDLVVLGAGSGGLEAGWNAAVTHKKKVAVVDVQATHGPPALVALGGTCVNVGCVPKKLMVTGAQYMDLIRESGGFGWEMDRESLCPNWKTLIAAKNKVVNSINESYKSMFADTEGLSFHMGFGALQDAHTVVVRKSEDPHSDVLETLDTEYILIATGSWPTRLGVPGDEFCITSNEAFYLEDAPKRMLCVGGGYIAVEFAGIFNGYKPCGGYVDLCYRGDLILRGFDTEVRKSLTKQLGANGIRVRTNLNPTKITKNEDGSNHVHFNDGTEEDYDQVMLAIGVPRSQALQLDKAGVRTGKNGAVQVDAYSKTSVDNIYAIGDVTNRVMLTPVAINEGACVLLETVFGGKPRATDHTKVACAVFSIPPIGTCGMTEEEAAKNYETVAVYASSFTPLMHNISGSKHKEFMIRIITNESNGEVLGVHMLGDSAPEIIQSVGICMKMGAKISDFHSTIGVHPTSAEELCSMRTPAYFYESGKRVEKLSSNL

Row | Compound | inhibition [1] [%] | inhibition [2] [%] | Activity (Leishmania donovani [3]) | IC50 (Leishmania donovani [4]) [µM] | Activity (Leishmania donovani [5]) | Activity (Leishmania donovani [6]) | inhibition [7] [%] | Activity (Leishmania donovani [8]) [%] | Activity (Leishmania donovani [9]) | viability at 48 h, 4 µM [10] [%] | Activity (Leishmania donovani [11]) | inhibition [12] [%] | Activity (Leishmania donovani [13]) [%] | Activity (Leishmania donovani [14]) | Activity (Leishmania donovani [15]) | inhibition [16] [%] | Activity (Leishmania donovani [17]) | Activity (Leishmania donovani [18]) | inhibition [19] [%] | inhibition [20] [%] | further results
1 | COC(=O)C1=CO[C@@H](O[C@@H]2O[C@H](CO)[C@@H](O)[C@H](O)[C@H]2O)[C@@H]2[C@@H](C)[C@@H](OC(=O)/C=C/c3ccc(OC)cc3)[C@@H](O)[C@H]12 [ARBORTRISTOSIDE A] | 92.5 | 41.9 | Active | 3.26 | Active | Active | 60.1 | 61.24 | Active | 95.5 | Active | 33.8 | 26.3 | Active | Active | 65.8 | Active | Active | 63.7 | 97.9 | Activity (Leishmania donovani [21]): 10.33%; Activity (J774.A1): Non-toxic; Activity (Leishmania donovani [22]): 2.13%; viability at 48 h, 100 µM [23]: 71.2%; IC50 (Leishmania donovani [24]): 7.26 µM; inhibition [25]: 73.4%
2 | COC(=O)C1=CO[C@@H](O[C@@H]2O[C@H](CO)[C@@H](O)[C@H](O)[C@H]2O)[C@@H]2[C@@H](CO)[C@@H](OC(=O)/C=C/c3ccc(O)c(O)c3)[C@@H](O)[C@H]12 [ARBORTRISTOSIDE B] | 92.6 | 46.9 | Active | 3.5 | Active | Active | 63.6 | 52.48 | Active | 93.6 | Active | 41.9 | 31.04 | Active | Active | 67.9 | Active | Active | 67.9 | 96.9 | Activity (Leishmania donovani [21]): 13.52%; Activity (J774.A1): Non-toxic; Activity (Leishmania donovani [22]): 2.96%; viability at 48 h, 100 µM [23]: 54.8%; IC50 (Leishmania donovani [24]): 7.63 µM; inhibition [25]: 77.5%
3 | COC(=O)C1=CO[C@@H](O[C@@H]2O[C@H](CO)[C@@H](O)[C@H](O)[C@H]2O)[C@@H]2[C@@H](C)[C@@H](OC(=O)/C=C/c3ccc(O)cc3)[C@@H](O)[C@H]12 [ARBORTRISTOSIDE C] | 95.3 | 51.7 | Active | 5.02 | Active | Active | 62.7 | 50.9 | Active | 89.6 | Active | 46.9 | 36.59 | Active | Active | 67.8 | Active | Active | 78.9 | 97.7 | Activity (Leishmania donovani [21]): 10%; Activity (J774.A1): Non-toxic; Activity (Leishmania donovani [22]): 2.51%; viability at 48 h, 100 µM [23]: 48.6%; IC50 (Leishmania donovani [24]): 9 µM; inhibition [25]: 82.8%
